# Data taken from patent US12012394B2, “Alpha-synuclein ligands” (Washington University, priority 2018, dated 2024).
# Values joined by “and” are separate entries in the source; they are usually repeats but may differ in a detail not shown here. Identical values can stand only once.
# Experiments:
# α-synuclein fibrils [1] = target: T1, α-synuclein fibrils (Homo sapiens (Human), UniProt P37840); assay: Thioflavin T fluorescence competitive assay; details: read-out: Thioflavin T assay Ki; competition with ThT on recombinant α-synuclein fibrils; at least three experiments
# Method: α-Synuclein recombinant protein was produced in E. coli. BL21(DE3)RIL E. coli were transformed with a pRK172 bacterial expression plasmid containing the human α-synuclein coding sequence. […] Overnight cultures were pelleted by centrifugation at 3,900×g for 10 min at 25° C. Bacterial pellets were resuspended in 20 mL osmotic shock buffer (30 mM Tris-HCl, 2 mM EDTA, 40% sucrose, pH 7.2) by gentle vortexing and incubated at room temperature for 10 minutes. The cell suspension was then centrifuged at 8,000×g for 10 min at 25° C. and the pellet was resuspended in 22.5 mL cold H2O before adding 9.4 μL 2 M MgCl2 to each tube. The suspension was incubated on ice for 3 min prior to centrifugation at 20,000×g for 15 min at 4° C. The supernatant was transferred to a fresh tube, streptomyocin was added to a final concentration of 10 mg/mL, and then centrifuged at 20,000×g for 15 min at 4° C. The supernatant from this step was collected and dithiothreitol (DTT) and Tris-HCl were added to final concentrations of 1 mM and 20 mM respectively, before boiling for 10 min to precipitate heat-sensitive proteins, which were pelleted at 20,000×g for 15 minutes at 4° C. The supernatant was collected and filtered through a 0.45 μm surfactant free cellulose acetate filter (Corning, Corning, NY) before loading onto a 1 mL DEAE Sepharose column equilibrated in 20 mM Tris-HCl pH 8, 1 mM EDTA, and 1 mM DTT. The DEAE column was washed with 20 mM Tris-HCl pH 8, 1 mM EDTA, 1 mM DTT before eluting α-synuclein protein in 20 mM Tris-HCl, pH 8, buffer with 1 mM EDTA, 1 mM DTT and 0.3 M NaCl. The purified α-synuclein protein was dialyzed overnight in 10 mM Tris-HCl, pH 7.6, 50 mM NaCl, and 1 mM DTT.
# The purified, recombinant α-synuclein monomer (2 mg/mL) was incubated in Tris-HCl (20 mM) and NaCl (100 mM) while shaking at 1000 rpm in an Eppendorf Thermomixer in a 37° C. temperature-controlled room for 72 hours. To determine the concentration of fibrils, the reaction mixture (100 μL) was centrifuged at 18,000×g for 10 minutes to separate fibrils from monomer. The α-synuclein monomer and other soluble proteins in the supernatant were removed, and the fibril pellet was resuspended in 100 μL solution of Tris-HCl (20 mM) and NaCl (100 mM). This fibril suspension was used in a bicinchoninic acid (BCA) protein assay along with a bovine serum albumin (BSA) standard curve to determine the concentration of fibrils in the 72 hour fibril reaction mixture.
# To prepare the fibrils for performing binding assays, the fibril reaction mixture prepared above was centrifuged at 18,000×g for 10 minutes. The supernatant was discarded and the fibril pellet was resuspended in Tris-HCl buffer (30 nM, pH=7.4) to achieve the desired concentration (3 or 6 μM) of fibrils for use in the assay.
# The ThT solution (6 μM) in Tris-HCl buffer (30 nM, pH=7.4, 40 μL) was added to each of three cells in a 96 cell plate for fluorescence detection containing α-synuclein fibrils suspension (3.0 μM) in the Tris-HCl buffer (30 nM, pH=7.4, 40 μL). The mixture was incubated at room temperature for 1 hour on the shaking plate. The reaction plate was scanned by the excitation wavelength range from 430 to 465 nm. The maximum excitation wavelength (λex) was determined according to the fluorescent intensity-excitation wavelength curve.
# α-synuclein fibrils [2] = target: T1, α-synuclein fibrils; assay: Direct radioligand binding assay of [18F]28, α-synuclein fibrils; details: α-synuclein fibrils
# Method: (§1) The equilibrium dissociation constant (Kd) for a series of compounds was determined using direct radioactive competitive binding assays (homologous or heterologous) with either recombinant α-synuclein fibrils or brain tissue homogenates from AD cases.
# (§2) Recombinant protein was produced in E. coli using protocols based on previously described methods for α-synuclein [Giasson, B. I., et al., “Mutant and wild type human alpha-synucleins assemble into elongated filaments with distinct morphologies in vitro,” 1999, J Biol. Chem., 274:7619-7622; Huang, C., et al., “A new method for purification of recombinant human alpha-synuclein in Escherichia coli,” 2005, Protein Expr Purif, 42:173-177; Yu, L., et al, “Synthesis and in vitro evaluation of á-synuclein ligands,” 2012, Bioorg. […]
# (§3) Purified recombinant α-synuclein monomer (2 mg/ml) was incubated in 20 mM Tris-HCl, pH 8.0, 100 mM NaCl for 72 h at 37 C with shaking at 1000 rpm in an Eppendorf Thermomixer. […] The concentration of α-synuclein monomer in the supernatant was determined in a BCA protein assay according to the manufacturer's instructions, using a bovine serum albumin (BSA) standard curve. The measured decrease in α-synuclein monomer concentration was used to determine the concentration of fibrils in the 72 h fibril reaction mixture. […]
# α-synuclein fibrils [3] = assay: as above; design: species or system human; details: comparison of Kd on fibrils and AD tissue
# Method: as §1, §2, §3
# Banner AD tissue = assay: Homologous competition radioligand binding assay, AD tissue; design: species or system human; details: [18F]28
# Method: as §1
# Brain tissue samples were selected from an autopsy case series of patients evaluated for parkinsonism by movement disorders specialists at the Movement Disorders Center of Washington University School of Medicine in St. Louis. […] Dementia was determined by a movement disorders specialist based on clinical assessment of cognitive dysfunction sufficiently severe to impair activities of daily living, with further evaluation of cognitive impairment using the AD8 and Mini-Mental Status Exam (MMSE) [Galvin, J. E., et al., “The AD8: a brief informant interview to detect dementia,” 2005, Neurology 65:559-564; Folstein, M. F., et al., ““Mini-mental state”. […] LB stage was assessed at autopsy using a PD staging scale (range: 0, 1-6) [Braak, H., et al., “Stages in the development of Parkinson's disease-related pathology,” 2004, Cell Tissue Res., 318:121-134]. PD cases were selected based on a clinical diagnosis of PD plus dementia, Braak LB stage 5-6 pathology, and the absence of significant Aβ or tau pathology determined by immunohistochemistry. […]
# Fibrils 4174 = Fibrils 4174 (Homo sapiens, UniProt P37840); assay: 3H radioligand competition, Fibrils 4174; format: binding; details: hot concentration 2 nM
# Method: (§4) A series of compounds were synthesized and the Ki (nM) in the presence of Fibrils 4174, PD-seeded fibrils (using Tg-1-90B as the radioligand), AD Tissue 6843 and/or AD Tissue 2846 was determined. In each experiment, the “hot” concentration was 2 nM.
# PD-seeded fibrils [4] = target: T2, PD-seeded fibrils (Homo sapiens (Human), UniProt P37840); assay: Radioligand competition, PD-seeded fibrils (Tg-1-90B as radioligand); format: binding; details: PD-seeded fibrils (Tg-1-90B radioligand); hot concentration 2 nM
# Method: as §4
# AD Tissue 2846 = assay: 3H radioligand competition, AD Tissue 2846; format: binding; details: hot concentration 2 nM
# Method: as §4
# AD Tissue 6843 [5] = assay: 3H radioligand competition, AD Tissue 6843; format: binding; details: hot concentration 2 nM
# Method: as §4
# PD-seeded fibrils [6] = target: T2, PD-seeded fibrils; assay: Heterologous competition binding assay with [18F]TZ61-44 as radioligand; details: radioligand [18F]TZ61-44, 25 nM PD-seeded fibrils; for Ki: Cheng-Prusoff from EC50
# Method: (§5) The equilibrium inhibitor constant (Ki) of a series of compounds was measured using heterologous radioactive binding assays with [^18F]TZ61-44, […], or [^125I]TZ61-84 as the screening radioligands. EC50 values for each compound were determined by fitting the data to the equation Y=Bottom+(Top−Bottom)/(1+(X−Log EC50)^−Hillcoefficient) using nonlinear regression by Kaleidagraph software, where Top and Bottom are the Y values for the top and bottom plateaus of the binding curve. The Ki values were derived from the EC50 values using the Cheng-Prusoff equation: Ki=EC50/(1+[radioligand]/Kd). FIGS. 5A-5E show the inhibition curves for TG-1-90B, TZ55-101, TZ61-84, TZ55-107, and TZ55-81 using [^18F]TZ61-44 as the radioligand. FIG. 11B-C show the inhibition curves for two separate experiments on PD fibrils for TZ55-101 using […] as the radioligand. FIGS. 12A-12F show the inhibition curves for TZ66-3, TZ64-015, TZ64-016, TZ64-018, TZ64-019, and TZ64-020 using [^18F]TZ61-44 as the radioligand. FIGS. 13A-13D show the inhibition curves for TZ66-9, TZ66-8, and TZ55-107 using [^18F]TZ61-44 as the radioligand.
# AD Tissue 6843 [7] = assay: Heterologous competition binding assay with [11C]Tg-1-90-B, AD tissue; details: radioligand [11C]Tg-1-90-B
# Method: FIG. 11D is a plot of a heterologous competition binding assay of TZ55-101 in the presence of the radioligand [^11C]Tg-1-90-B and AD tissue 6843.
# as §5
# The binding to AD fibrils was also assessed for TZ55-101 in FIG. 11D.
# PD fibrils = PD fibrils (Homo sapiens (Human), UniProt P37840); assay: Heterologous competition binding assay with [11C]Tg-1-90B as radioligand; details: radioligand Tg-1-90-B
# Method: as §5
# α-synuclein fibrils [8] = target: T1, α-synuclein fibrils; assay: Specific binding of TZ61-84: displacement of [18F]TZ-61-84 from fibrils; details: [18F]TZ-61-84 at 0.0195 nM
# Method: (§6) TZ61-84 was screened for binding to Banner PD tissue, AD tissue, α-synuclein fibrils, Aβ fibrils and in controls by measuring how well it displaced [^18F]TZ-61-84 (at 0.0195 nM) from each substrate.
# Banner seeded fibrils = Banner seeded fibrils (Homo sapiens (Human), UniProt P37840); assay: Saturation binding of [125I]TZ61-84 to Banner seeded fibrils
# Method: The binding efficacy (Kd) of TZ-61-84 was determined using a modified protocol. Specifically, saturation plots of radiolabeled [^125I]TZ61-84 were obtained measuring total and nonspecific binding of TZ61-84 to 100 nM Banner seeded fibrils. The results are depicted in FIG. 15B-15D and that TZ61-84 has a high binding affinity to α-synuclein (Kd<1 nM).
# Banner PD tissue = assay: Specific binding of TZ61-84: displacement of [18F]TZ-61-84 from tissue; details: [18F]TZ-61-84 at 0.0195 nM
# Method: as §6
structure (smiles),measurement,setting,value
"COc1cc(-c2nc(-c3ccc4cc(OCCF)ccc4n3)no2)ccn1 [Compound 28, 3-(6-(2-Fluoroethoxy)quinolin-2-yl)-5-(2-methoxypyridin-4-yl)-1,2,4-oxadiazole]",Ki,α-synuclein fibrils [1],17 nM
same,Kd,α-synuclein fibrils [2],18 nM
same,selectivity for α-synuclein fibrils over AD tissues,α-synuclein fibrils [3],lacks selectivity
same,Bmax,Banner AD tissue,1082 pmol/mg
same,Kd,Banner AD tissue,25 nM
COc1ccc2nc(-c3noc(-c4ccc(-n5cccn5)cc4)n3)ccc2c1 [TZ46-148],Ki,Fibrils 4174,82 nM
same,Ki,PD-seeded fibrils [4],17 nM
same,Ki,AD Tissue 2846,7 nM
same,Ki,AD Tissue 6843 [5],13 nM
COc1ccc(-c2ccc3cc(-c4cnc5ccccc5c4)ccc3n2)cn1 [TZ55-101],EC50,PD-seeded fibrils [6],15 nM
same,Ki,PD-seeded fibrils [6],14 nM
same,affinity for AD fibrils,AD Tissue 6843 [7],did not show significant affinity
same,EC50,PD fibrils,21 nM and 11 nM
same,Ki,PD fibrils; Cheng-Prusoff from EC50,20 nM and 10 nM
COc1ccc(Nc2ccc3cc(OC/C=C/I)ccc3n2)cn1 [TZ61-84],EC50,PD-seeded fibrils [6],17 nM
same,Ki,PD-seeded fibrils [6],16 nM
same,affinity for α-synuclein fibrils over Aβ fibrils,α-synuclein fibrils [8],slightly more affinity
same,Kd,"Banner seeded fibrils; 100 nM Banner seeded fibrils, saturation binding",0.34 nM and 0.5 nM
same,Kd,"Banner seeded fibrils; 100 nM fibrils, saturation plot, unit inferred",0.338 nM and 0.496 nM
same,Bmax,"Banner seeded fibrils; 100 nM fibrils, saturation plot, unit not given, listed as [^125I]TZ61-84",259.7 and 310.5
same,affinity for PD Banner tissue compared to AD Banner tissue,Banner PD tissue,high affinity
